Key:
Type in all cases: in vivo
[1] = test system: atherosclerotic ApoE-/- mice, hindlimb ischemia; test: Effects on running distance in apolipoprotein E knockout mice after hindlimb ischemia
Procedure: To evaluate effects more closely, the percent change in running distance compared to the run-in values (2 week run-in period before ligature) of all animals were analyzed.
FIG. 8: Effects of Compound of Ex. 8 on daily running distance in atherosclerotic ApoE-/- mice before and after induction of bilateral hindlimb ischemia (mean±SEM; 10 to 11 animals) • ApoE-/-=apolipoprotein E knockout; Ctrl.=control; SEM=standard error of mean

[2] = test system: full-thickness wounds in STZ-challenged minipigs; test: Wound healing in streptozotocin (STZ)-challenged minipigs
Procedure: Wounds (twelve 15.15-mm full-thickness wounds) were induced in STZ-challenged minipigs. STZ challenge (160 mg/kg) was performed 14 days before wounding in 15 animals, two out of 15 animals had to be sacrificed due to blood glucose instability. The remaining 13 animals (body weight around 25 kg: 27.92±2.35 kg on the day of STZ dosing, Day 0: 24.35±2.14 kg and Day 17: 23.27±2.24 kg) were randomized to 3 groups:
Group I) placebo: Animal 1, 8, 10 and 13; Group II) 0.6 mg/kg Compound of Ex 8: Animal 2, 7, 11 and 12; Group III) 0.1 mg/kg Compound of Ex. 8: Animal 3, 4, 6, 14 and 15
Oral gavage was done by gelatin capsules containing Compound of Ex. 8 or lactose as placebo (25 kg body weight was assumed for all animals).
Topical treatment was performed using Compound of Ex. 8 in a concentration of 0.06 mg/mL in a Pluronic® gel matrix or as placebo Pluronic® gel at a volume of 1 mL per wound. The whole study was performed in a blinded manner. The 12 wounds per animal were treated according to Table 1 to combine oral treatment with and without topical treatment in this study. Wounds were closed by a sterile reclosable bag system. Animals were treated orally BID for 17 days starting after wounding (Day 0) and topically once daily on Days 0, 2, 5, 8, 11 and 14. On Day 17, wounds were harvested and animals sacrificed.
The primary endpoint of this study was wound size over study time. Wound size was evaluated via photographs and evaluated by photoshop under blinded conditions. Wound size was shown in absolute numbers as well as percent size vs. wound size on Day 0. In addition, re-epithelialization as well as wound contracture were determined The mean of all 12 wounds per animal was compared to Day 0. […] Between Day 5 and Day 11, a differentiation between the animals was observed.

[3] = test system: diabetic ZDF fa/fa rats, ligature of the left iliac artery; test: Effects on ankle-brachial index in ZDF rats (unilateral hindlimb ischemia model)
Procedure: Compound of Ex. 8 induced a 10 to 30% improvement in the perfusion index (FIG. 7). […] Corresponding plasma concentrations were measured between 4 and 47 μg/L.
FIG. 6: Effects of Compound of Ex. 8 on perfusion pressure indices. Shown are baseline value (Od) as well as perfusion pressure indices after ligature of the left iliac artery and 2 weeks of daily treatment (14 d) with Compound of Ex. 8 in diabetic ZDF fa/fa rats (raw data; 10 animals) • Student t-test, Compound of Ex. 8 versus vehicle; ZDF=Zucker diabetic fatty
FIG. 7: Percent change in perfusion pressure indices by Compound of Ex. 8 after 14 days (14 d) of daily treatment compared to baseline values (mean±SEM; 10 animals) • SEM=standard error of mean; ZDF=Zucker diabetic fatty

[4] = test system: ischemic wounds in New Zealand white rabbits; test: Wound healing in the ischemic rabbit ear model
Procedure: Ischemic wounds (three 7 mm full-thickness dermal punches on the inner surface of both ears) were induced in New Zealand white rabbits. Oral gavage was done through a nasogastric tube or catheter. 20 rabbits were treated with Compound of Ex. 8 (0.3 mg/kg; n=10) or vehicle (10% ethanol, 30% PEG 400, 60% tap water, n=10) through the catheter daily at multiple time points [post-wounding days (POD) 3, 4, 5, 6 and 7]. Wounds were harvested on POD 10. For histologic analysis, one-half of wounds including the surrounding normal skin in rectangular shape was taken. One-half of the wound was frozen for further molecular analysis. Tissues underwent routine processing, paraffin embedding, and sectioning. A 4 μm cross section through the center of each rectangular biopsy was taken. The tissues were stained with hematoxylin and eosin and examined under light microscopy. Several histomorphometric measurements were determined, using a digital image analysis system (NIS-Elements Basic Research; Nikon Instech Co, Kanagawa, Japan) at 2 fold and 10 fold magnification. Each parameter was measured in a blinded manner.
In addition, tissue oxygen tension and blood flow were examined by the OxyLite® system (Oxford Optronix). Oxygen tension and blood flow were measured on POD 3, 7 and 10 in each rabbit. The oxygen tension unit is mmHg and the blood flow unit is blood PUs. The results were presented as ratio of O2-ischemia/O2-non-ischemia, or flow-ischemia/flow-non-ischemia. Analysis was performed by comparison between control and treatment groups on POD 3, 7 and 10.

[5] = 0.6 mg treated wounds vs placebo

SMILES: O=C(c1cnc(N2CC3(COC3)C2)nc1)N1CCC(N2CCc3ccccc3C2)CC1 [Compound of Ex. 8, [4-(3,4-Dihydroisoquinolin-2(1H)-yl)piperidin-1-yl][2-(2-oxa-6-azaspiro[3.3]hept-6-yl)pyrimidin-5-yl]methanone]
- total running distance, percent change vs run-in values ([1]; 10 μg/ml (FIG. 9)): tendency toward an improvement
- running distance, area under the curve from Day 0 to Day 28 ([1]; 30 μg/kg vs placebo): significant improvements compared to placebo
- running distance, percent change vs run-in values ([1]; 30 μg/kg, several days during the 4 week observation period (FIG. 10)): significant improvement in running distance
- running distance, area under the curve from Day 0 to Day 28 ([1]; 100 μg/kg vs placebo): significant improvements compared to placebo
- running distance, percent change vs run-in values ([1]; 100 μg/kg, several days during the 4 week observation period (FIG. 11)): significant improvement in running distance
- running distance ([1]; oral administration of 10, 30 and 100 μg/mL, after induction of hindlimb ischemia (FIG. 8)): increase in running distance
- wound size, wounds without topical treatment (Wounds 1 to 6) ([2]; 0.1 mg/kg oral BID vs placebo, Day 2 (P=0.011) and Day 5 (P=0.014)): significant improvement vs. placebo
- wound contracture ([2]; 0.1 mg/kg oral BID, Day 2, 5, 8, 11 and 17): improvement in wound contracture being significant
- course of wound healing (variability) ([2]; 0.1 mg/kg oral BID, between Day 5 and Day 11): greater heterogeneity
- histology: cell proliferation [2, 5]: reduced cell proliferation
- histology: collagen III/I ratio [2, 5]: lower collagen III/I ratio
- histology: detectable vessels [2, 5]: more detectable vessels
- histology: differentiation level of the epidermis [2, 5]: increased differentiation level of the epidermis
- histology: inflammation [2, 5]: reduced inflammation
- histology: re-epithelialization level [2, 5]: higher re-epithelialization level
- histology: structuring of basement membranes defined by laminin detection [2, 5]: increased structuring of basement membranes
- histological evaluation of wound healing ([2]; 0.6 mg treated wounds vs placebo, wounds harvested Day 17): more advanced wound healing
- wound size over time, mean of all wounds ([2]; 0.6 mg/kg oral BID 17 days vs placebo, all 12 wounds per animal, all days (FIG. 1)): significantly improved wound healing
- wound size, wounds without topical treatment (Wounds 1 to 6) ([2]; 0.6 mg/kg oral BID vs placebo, all values (FIG. 2)): significantly better compared to the placebo group
- wound contracture ([2]; 0.6 mg/kg oral BID, Day 2, 5, 8 and 11): improvement in wound contracture being significant
- difference in wound size vs placebo, wounds without topical treatment (Wounds 1 to 6) ([2]; 0.6 mg/kg oral BID, Day 8): about 21.6%
- re-epithelialization ([2]; 0.6 mg/kg oral BID, Day 17, two animals of the group): complete and stable re-epithelialization
- speed of wound healing ([2]; 0.6 mg/kg oral BID, between Day 5 and Day 11, vs placebo and 0.1 mg/kg groups): quicker wound healing compared to the 2 other groups
- wound size, wounds without topical treatment (Wounds 1 to 6), dose comparison ([2]; 0.6 mg/kg vs 0.1 mg/kg group, Days 8, 11, 14 and 17): significantly better compared to the 0.1 mg/kg group
- perfusion pressure ([3]; 0.3 mg/kg (most effective dose), 14 d daily treatment): significant increase in perfusion pressure
- muscle function in the ligated limb ([3]; 0.1, 0.3 and 1 mg/kg): slight tendency toward improved muscle function
- perfusion indices ([3]; 0.1, 0.3 and 1 mg/kg, 2 weeks of daily treatment (FIG. 6)): increase in perfusion indices at all doses
- granulation area ([4]; 0.3 mg/kg oral, POD 3-7, wounds harvested POD 10, P=0.07 vs control): 133,630+20,208 μm^2
- epithelial gap ([4]; 0.3 mg/kg oral, POD 3-7, wounds harvested POD 10, no significant difference vs control): 5,212+213 μm
- blood flow ratio (flow-ischemia/flow-non-ischemia) ([4]; 0.3 mg/kg, POD 10, P=0.018 vs control): 0.495
- oxygen tension ratio (O2-ischemia/O2-non-ischemia) ([4]; 0.3 mg/kg, POD 10, P=0.079 vs control): 0.238
- change in blood flow ratio from POD 3 to POD 10 ([4]; 0.3 mg/kg, same rabbit, P=0.108 vs control): 0.149
- change in oxygen tension ratio from POD 3 to POD 10 ([4]; 0.3 mg/kg, same rabbit, P=0.322 vs control): 0.082

Reference: patent publication US20200230136A1, “SELECTIVE ADRENORECEPTOR ALPHA2C RECEPTOR ANTAGONISTS ALONE, OR IN COMBINATION WITH CHYMASE INHIBITORS FOR USE IN THE TREATMENT AND/OR PROPHYLAXIS OF PERIPHERAL ARTERY DISEASES (PAD)” (Bayer Aktiengesellschaft, priority 2017, published 2020)
